Marks after values point to notes of the source that are not given here.
Key:
[1] = value for 1 mg; cited from earlier work
[2] = tested on: patients at high risk of cardiovascular events; experiment: HOPE study: CV outcomes with vitamin E or ramipril by haptoglobin phenotype; type: in vivo, human; conditions: for benefit of supplementation: unselected DM group
Text: HOPE study and patient characteristics: The Heart Outcomes Prevention Evaluation (HOPE) study was designed to test the hypotheses that two preventive intervention strategies, namely angiotensin-converting enzyme (ACE) inhibition or vitamin E, would improve morbidity and mortality in patients at high risk of cardiovascular events compared with placebo. Patients were included in the study who were considered to be at high risk of future fatal or non-fatal cardiovascular events, by virtue of their age (>55 years), existing or previous cardiovascular disease, or diabetes. Diabetics had at least one other risk factor, either known vascular disease or other factors such as cigarette smoking, high cholesterol or hypertension. Ramipril or placebo was added to concomitant medication, which included, in a substantial proportion of patients, antihypertensive drugs (excluding ACE-I), lipid-lowering agents or aspirin. The HOPE study design and protocols have been previously described in detail (see, for example, The Heart Outcomes Prevention Evaluation Study Investigators NE J Med, 2000; 342:154-60 and […] Angioten Aldost Sys 2000; 1:18-20). Briefly, the study population consisted over 9,451 patients at high risk of CVD (3,654 DM). […] Patients were followed for a mean of 4.5 years. The primary study outcome was the composite of non-fatal MI, stroke or cardiovascular death. For samples from the HOPE Study, haptoglobin phenotyping was performed from 10 ul of plasma by polyacrylamide gel electrophoresis according to established methods (Hochberg I et al Atherosclerosis 2002; 161:441-446). A signature banding pattern is obtained from individuals who are homozygous for the 1 allele (Hp 1-1), homozygous for the 2 allele (Hp 2-2) or who are heterozygous at the haptoglobin locus (Hp 2-1). We have established 100% concordance between the haptoglobin phenotype as determined from plasma and the haptoglobin genotype as determined from genomic DNA by the polymerase chain reaction (Koch W, et al Clin Chem 2002; 277:13635-40). An unambiguous haptoglobin phenotype was obtained on greater than 99.6% of all samples assayed. Haptoglobin phenotyping was performed with no knowledge of the patients clinical or treatment status. All analyses of the HOPE Study data were carried out using SAS 6.02. Baseline characteristics of patients according to haptoglobin were compared by t tests or .chi^2 tests as appropriate. […] Patient characteristics of HOPE samples undergoing haptoglobin phenotyping: Haptoglobin phenotype was obtained on 3176 patients (1078 diabetics) from the original HOPE cohort for whom plasma was originally archived. These patients represented a randomly selected consecutive series of patients from the entire HOPE cohort.

[3] = tested on: patients at high risk of cardiovascular events; conditions: HOPE study as published; daily 400 IU for 4.5 years; not stratified by haptoglobin; cited from earlier work
macrophages = experiment: Cholesterol efflux from macrophage by serum from treated diabetic mice; conditions: for effect on cholesterol efflux activity: Hp 2-2 diabetic mice
[4] = CVD outcomes and Vitamin C supplementation (data not shown); type: in vivo, human; conditions: unselected samples or Diabetic patients
[5] = DM patients only, Hp 2-2, listed as vitamin E
[6] = DM patients with the other haptoglobin phenotypes (Hp 1-1 and Hp 2-1)
[7] = all patients, Hp 1-1, supplementation vs placebo
[8] = all patients, Hp 2-1, supplementation vs placebo
[9] = all patients, Hp 2-2, supplementation vs placebo
[10] = entire sample, regardless of haptoglobin type
[11] = serum from diabetic Hp 1-1 mice treated orally 28 days (vitamin E 1 mg/kg/day; GPx mimetic 2 mg/kg/day)
[12] = serum from diabetic Hp 2-2 mice treated orally 28 days (vitamin E 1 mg/kg/day; GPx mimetic 2 mg/kg/day)

CC(=O)Oc1c(C)c(C)c2c(c1C)CC[C@@](C)(CCC[C@H](C)CCC[C@H](C)CCCC(C)C)O2 [RRR-.alpha-tocopherol acetate]
specific activity [1]: 1.36 IU per milligram

CC(=O)Oc1c(C)c(C)c2c(c1C)CC[C@@](C)(CCC[C@H](C)CCC[C@H](C)CCCC(C)C)O2 [Vitamin E]
Relative Risk Ratio, CV death (95% CI) ([2]; DM patients only, Hp 1-1): 0.64
Relative Risk Ratio, MI (95% CI) ([2]; DM patients only, Hp 1-1): 0.83
Relative Risk Ratio, Primary (non-fatal MI, stroke or cardiovascular death) (95% CI) ([2]; DM patients only, Hp 1-1): 0.84
Relative Risk Ratio, Stroke (95% CI) ([2]; DM patients only, Hp 1-1): 2.24
Relative Risk Ratio, CV death (95% CI) ([2]; DM patients only, Hp 2-1): 1.0(0.53-1.93)
Relative Risk Ratio, MI (95% CI) ([2]; DM patients only, Hp 2-1): 0.99
Relative Risk Ratio, Primary (non-fatal MI, stroke or cardiovascular death) (95% CI) ([2]; DM patients only, Hp 2-1): 1.08
Relative Risk Ratio, Stroke (95% CI) ([2]; DM patients only, Hp 2-1): 0.99(0.45-2.18)
Relative Risk Ratio, CV death (95% CI) ([2]; DM patients only, Hp 2-2): 0.45 (0.23-0.90) *
Relative Risk Ratio, MI (95% CI) ([2]; DM patients only, Hp 2-2): 0.57
Relative Risk Ratio, Primary (non-fatal MI, stroke or cardiovascular death) (95% CI) ([2]; DM patients only, Hp 2-2): 0.70(0.45-1.10)
Relative Risk Ratio, Stroke (95% CI) ([2]; DM patients only, Hp 2-2): 1.15
Relative Risk Ratio, CV death (95% CI) [2, 5]: 0.45
Relative Risk Ratio, MI (95% CI) [2, 5]: 0.57
benefit for any of the primary CV outcomes [2, 6]: no significant benefit
Relative Risk Ratio, CV death (95% CI) ([2]; all patients, Hp 1-1): 1.10
Relative Risk Ratio, MI (95% CI) ([2]; all patients, Hp 1-1): 0.79
Relative Risk Ratio, Stroke (95% CI) ([2]; all patients, Hp 1-1): 1.50
Relative Risk Ratio, Primary (non-fatal MI, stroke or cardiovascular death) (95% CI) [2, 7]: 0.97(0.63-1.50)
Relative Risk Ratio, CV death (95% CI) ([2]; all patients, Hp 2-1): 1.07(0.69-1.64)
Relative Risk Ratio, MI (95% CI) ([2]; all patients, Hp 2-1): 1.02(0.75-1.38)
Relative Risk Ratio, Stroke (95% CI) ([2]; all patients, Hp 2-1): 0.92(0.53-1.60)
Relative Risk Ratio, Primary (non-fatal MI, stroke or cardiovascular death) (95% CI) [2, 8]: 0.96(0.74-1.25)
Relative Risk Ratio, CV death (95% CI) ([2]; all patients, Hp 2-2): 0.75
Relative Risk Ratio, MI (95% CI) ([2]; all patients, Hp 2-2): 0.94(0.68-1.30)
Relative Risk Ratio, Stroke (95% CI) ([2]; all patients, Hp 2-2): 0.85
Relative Risk Ratio, Primary (non-fatal MI, stroke or cardiovascular death) (95% CI) [2, 9]: 0.92
benefit for any of the primary CV outcomes [2, 10]: no significant benefit
benefit of supplementation [2]: no significant benefit
clinical benefit on cardiovascular (CV) outcomes [3]: failed to demonstrate any clinical benefit
effect on cholesterol efflux activity (macrophages): increased
Tritiated cholesterol efflux from macrophages (macrophages; [11]): 16.1 +/− 0.5 % per hour
Tritiated cholesterol efflux from macrophages (macrophages; [12]): 15.3 +/− 0.7 % per hour

CC(=O)Oc1c(C)c(C)c2c(c1C)CCC(C)(CCCC(C)CCCC(C)CCCC(C)C)O2 (racemic) [all-rac-α-tocopherol acetate]
specific activity [1]: 1.00 IU per milligram

CCOC(=O)[C@H](CCc1ccccc1)N[C@@H](C)C(=O)N1[C@H](C(=O)O)C[C@@H]2CCC[C@@H]21 [Ramipril, ramipril]
Relative Risk Ratio, Primary (non-fatal MI, stroke or cardiovascular death) (95% CI) ([2]; DM patients only, Hp 1-1): 0.78(0.35-1.75)
Relative Risk Ratio, Primary (non-fatal MI, stroke or cardiovascular death) (95% CI) ([2]; DM patients only, Hp 2-1): 0.97
Relative Risk Ratio, Primary (non-fatal MI, stroke or cardiovascular death) (95% CI) ([2]; DM patients only, Hp 2-2): 0.57
Relative Risk Ratio, Primary (non-fatal MI, stroke or cardiovascular death) (95% CI) ([2]; DM patients only, Hp 2-2, listed as ramipril): 0.57
benefit for any of the primary CV outcomes [2, 6]: no benefit
Relative Risk Ratio, Primary (non-fatal MI, stroke or cardiovascular death) (95% CI) [2, 7]: 0.74(0.47-1.17)
Relative Risk Ratio, Primary (non-fatal MI, stroke or cardiovascular death) (95% CI) [2, 8]: 0.81 (0.62-1.07)
Relative Risk Ratio, Primary (non-fatal MI, stroke or cardiovascular death) (95% CI) [2, 9]: 0.76
composite endpoint (non-fatal MI, stroke or cardiovascular death) ([2]; diabetic individuals in the HOPE study having a Hp 2-2 phenotype): statistically significant reduction
benefit for any of the primary CV outcomes [2, 10]: no significant benefit
benefit of supplementation [2]: no significant benefit

Cc1c(C)c2c(c(C)c1O)CC[C@@](C)(CCC[C@H](C)CCC[C@H](C)CCCC(C)C)O2 [RRR-alpha-tocopherol]
specific activity [1]: 1.49 IU per milligram

O=C1O[C@H]([C@@H](O)CO)C(O)=C1O [Vitamin C]
correlation between CVD outcomes and supplementation [4]: no correlation

Cc1c(C)c2c(c(C)c1O)CCC(C)(CCCC(C)CCCC(C)CCCC(C)C)O2 (racemic) [all-rac-.alpha-tocopherol]
specific activity [1]: 1.10 IU per milligram

CC1(C)CN[Se]c2ccccc21 [GPx mimetic]
effect on cholesterol efflux activity (macrophages): increased
Tritiated cholesterol efflux from macrophages (macrophages; [11]): 14.6 +/− 0.4 % per hour
Tritiated cholesterol efflux from macrophages (macrophages; [12]): 14.0 +/− 0.5 % per hour

From patent US20080213785A1, “Method of predicting a benefit of antioxidant therapy for prevention or treatment of vasclar disease in hyperglycemic individuals” (priority 2000, published 2008)
